Measured values: PubChem BioAssay (NCI)
Several values for one entry are separate records, joined by “and”; a condition that tells them apart may be missing. Equal values may be shown once.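 Compound exposure: 48 hours, 5 concentrations, 96-well plates. GI50 = concentration required for 50% inhibition of growth. TGI is the concentration that stops growth completely.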

Columns and labels:
Assay in all cases: inhibition of tumour cell growth, NCI panel, 48 h
786-0 renal = system: 786-0 renal
RXF 393 renal = system: RXF 393 renal
OVCAR-8 ovarian = system: OVCAR-8 ovarian
HOP-92 NSCLC = system: HOP-92 NSCLC
SF-268 CNS = system: SF-268 CNS
NCI-H226 lung = system: NCI-H226 lung
HS 578T breast = system: HS 578T breast
UACC-257 melanoma = system: UACC-257 melanoma

SMILES	GI50 (786-0 renal)	TGI (786-0 renal)	GI50 (RXF 393 renal) [µM]	TGI (RXF 393 renal)	GI50 (OVCAR-8 ovarian)	TGI (OVCAR-8 ovarian)	GI50 (HOP-92 NSCLC) [µM]	TGI (HOP-92 NSCLC) [µM]	GI50 (SF-268 CNS) [µM]	TGI (SF-268 CNS) [µM]	GI50 (NCI-H226 lung) [µM]	TGI (NCI-H226 lung) [µM]	GI50 (HS 578T breast) [µM]	TGI (HS 578T breast) [µM]	GI50 (UACC-257 melanoma) [µM]	TGI (UACC-257 melanoma) [µM]
C#CCN(Cc1nc2cc(C(F)(F)F)ccc2nc1-c1ccccc1)c1ccc(F)cc1	20.4 µM	54 µM	41	> 100 µM	29.4 µM	> 100 µM	24	86.8	37.9	> 100	42.4	> 100	34.7	> 100	18.7	63
O=C(Nc1ccc(-n2ccc3c(NC(=O)c4ccccc4)nccc32)cc1)c1ccc(N2CCOCC2)c(C(F)(F)F)c1	0.364 µM		0.194	1.48 µM	0.115 µM	56.2 µM	1.96	18.1	0.122	> 77.1	3.18	59.4	1.81	> 76.5	3.61	55.5
CCC(=O)Nc1ncnc2ncn(C(=O)CC)c12		> 100 µM		> 100 µM		> 100 µM		> 100		> 100				> 100		> 100
COC(=O)[C@H](Cc1cn(C)cn1)NC(=O)[C@@H](NC(=O)Nc1cc(C(F)(F)F)cc(C(F)(F)F)c1)C(C)(C)C	> 10 µM	> 10 µM	> 10	> 10 µM	> 10 µM	> 10 µM			> 10	> 10	> 10	> 10			> 10	> 10
O=C(O)CNC(=O)C1NC(C(F)(F)F)(C(F)(F)F)OC1(C(F)(F)F)C(F)(F)F (stereo not given)		> 100 µM		> 100 µM		> 100 µM		> 100		> 100		> 100		> 100		> 100
CCCC(=O)Nc1c(I)cc(I)c(CC(CC)C(=O)O)c1I (stereo not given)	> 100 µM	> 100 µM	> 100	> 100 µM	> 100 µM	> 100 µM	> 100	> 100	> 100	> 100	> 100	> 100	> 100	> 100	> 100	> 100
CCCCCCC(O)C(O)CCC(O)C1CCC(CCCCC(O)CC2=CC(C)OC2=O)O1 (stereo not given)	21.9 µM	52.1 µM	22.9	39.7 µM		6.65 µM	18.5	46.7	20.3	48.8	15.2	34.7		6.98	3.16	41.9
CNC(=S)N(C1CCCCC1)C1CCCCC1		> 100 µM		> 100 µM		> 100 µM		> 100		> 100		> 100		98.8		> 100
CC(=Nc1ccccc1)C1=C(O)C(Cc2ccc(F)cc2)NC1=O (stereo not given)	9.67 µM	> 100 µM	0.339	1.74 µM	2.73 µM	> 100 µM	0.327	> 100	4.45	> 100	39.5	> 100	2.44	> 100	> 100	> 100
S=C1SCN(C2CCCCCCCCCCC2)CN1C1CCCCCCCCCCC1		> 100 µM		> 100 µM		> 100 µM		> 100		> 100		> 100		> 100		> 100
Cc1nc2ccccc2c(/C=C/c2ccccc2)c1C(=O)/C=C/c1ccccc1	1.61 µM	3.02 µM	1.78	3.22 µM	2.11 µM	5.67 µM			2.14	6.24	2.16	5.27				
COc1cc2c(cc1OC)-c1ncc3cc(OC)c(OC)cc3c1C2	> 50 µM	> 50 µM	> 50	> 50 µM	> 50 µM	> 50 µM	> 50	> 50							> 50	> 50
CC(C)=CCc1c(O)c(C(=O)CC(C)C)c(O)c2c(-c3ccccc3)cc(=O)oc12	10.7 µM	> 50 µM	15.8	> 50 µM	8.98 µM	> 50 µM	1.04	4.84	12.5	> 50	16.4	> 50	9.75	49.9	6.52	30.2
CCCCCC(=C/c1ccccc1)/C=N/N=C(N)N	1.6 µM	3 µM	1.72	3.15 µM	1.74 µM	3.54 µM	1.45	3.19	1.45	2.99	2.2	5.51	1.8	4.18	1.45	2.83
C[C@H](C(O)CC(=O)C(C)(C)O)[C@H]1CC[C@@]2(C)[C@@H]3CC[C@H]4C(C)(C)[C@@H](OC5OC(COC6OC(CO)C(O)C(O)C6O)C(O)C(O)C5O)CC[C@]4(C)C3=CC[C@]12C (stereo not given in full)		> 100 µM		> 100 µM		> 100 µM		> 100		> 100		> 100		> 100		> 100
COc1ccccc1N1CCN(CCCOc2ccc(C(=O)/C=C3/C(=O)Nc4ccccc43)cc2)CC1	19.7 µM	> 70 µM	11.2	27.5 µM	12 µM	55.5 µM	2.59	22.2	16.8	47.3	14.3	65.7	22.5	> 52.7	9.79	35.5
N#CC(C(=O)O)C(c1c(Cl)cccc1Cl)C(C#N)C(=O)O (stereo not given)		> 100 µM				> 100 µM		> 100		> 100		> 100		> 100		> 100
CCCc1n(Cc2ccc3ccccc3n2)cc[n+]1Cc1ccc2ccccc2c1	2.93 µM	10.2 µM	2.98	14.6 µM	0.779 µM	4.65 µM	0.188	1.12	1.01	10.6	1.2	7.6	2.13	9.42	0.347	1.72

SMILES	GI50 (786-0 renal)	TGI (786-0 renal)	GI50 (RXF 393 renal) [µM]	TGI (RXF 393 renal)	GI50 (OVCAR-8 ovarian)	TGI (OVCAR-8 ovarian)	GI50 (HOP-92 NSCLC) [µM]	TGI (HOP-92 NSCLC) [µM]	GI50 (SF-268 CNS) [µM]	TGI (SF-268 CNS) [µM]	GI50 (NCI-H226 lung) [µM]	TGI (NCI-H226 lung) [µM]	GI50 (HS 578T breast) [µM]	TGI (HS 578T breast) [µM]	GI50 (UACC-257 melanoma) [µM]	TGI (UACC-257 melanoma) [µM]
Cc1ccc(-n2c3c(c4c(CN)c(O)ccc42)CCc2ccccc2C3=O)cc1	14.6 µM	28.8 µM	17	36.7 µM	19.7 µM	38 µM	2.31	8.11	9.06	28.3	18.2	36.6	0.456	5.03	18	34.1
COc1ccc(C[C@H]2NC[C@H](O)[C@H]2OC(C)=O)cc1		0.137 µM		0.399 µM		0.0897 µM		0.186		1.03		0.242		0.0604		2.89
C=C(C)[C@@H]1CC[C@]2(CN)CC[C@]3(C)[C@H](CC[C@@H]4[C@@]5(C)CCC(N)[C@@](C)(CO)[C@@H]5CC[C@]43C)[C@@H]12 (stereo not given in full)	1.64 µM	3.11 µM	1.28	2.59 µM	1.86 µM	3.57 µM	1.42	2.81	1.75	3.45	1.94	4.09	1.65	3.65	1.77	3.24
COc1ccc2c(c1)c(-c1ccc(-c3cn(C)c4ccc(OC)cc34)o1)cn2C	> 100 µM	> 100 µM	10.4	44 µM	8.02 µM	> 100 µM	1.03	10.3	9.24	> 100	23.6	> 100	4.2	20.1	27	> 100
C[C@@]1(O)CCC[C@H]1n1c(=O)c(C(F)F)cc2cnc(NC3CCN(S(C)(=O)=O)CC3)nc21	1.9 µM	> 100 µM	1.24	2.9 µM	2.11 µM	> 100 µM	2.04	6.8	2.07	7.34			1.48	7.28	2.31	22.8
CC1(C)OC2COC(c3[nH]nc4c(=O)[nH]c(=O)[nH]c34)C2O1 (stereo not given)		> 100 µM		> 100 µM		> 100 µM		> 100		> 100		> 100		> 100		> 100
CCCCCCCCCCCCC(NC(C)=O)(C(=O)OCC)C(=O)OCC	14.9 µM	29.3 µM	13.7	27 µM	12.7 µM	32.3 µM	12.2	25.4	13.4	28.5	12.5	27.2	14	45.8	11.7	26.1
CN(C)C1C(=O)C(C(N)=O)=C(O)C2(O)C(=O)C3=C(O)c4c(O)cccc4C(C)(O)C3CC12 (stereo not given)	26.1 µM and > 100 µM	63.8 µM and > 100 µM		87.5 µM and > 100 µM	15.4 µM and > 100 µM	34.9 µM and > 100 µM		> 100				> 100		> 100		> 100
CN[C@H]1CC[C@]23C[C@]24CC[C@]2(C)[C@@H]([C@H](C)N(C)C)CC[C@@]2(C)[C@@H]4CC[C@H]3C1(C)C		19.8 µM				32.9 µM		26		31.5		34.9		48		32.8
COc1cc2c(cc1OC)-c1ncc3cc(OC)c(OC)c(OC)c3c1C2	40 µM	> 100 µM	23.2	85.8 µM	12 µM	43.1 µM	15.3	> 100					4.11	27.2	16.4	52.6
COC(=O)CCCNC(=O)C(=O)c1c(O)c(O)c(C(C)C)c2cc(C)c(-c3c(C)cc4c(C(C)C)c(O)c(O)c(C(=O)C(=O)NCCCC(=O)OC)c4c3O)c(O)c12	1.07 µM	7.54 µM	0.651	5 µM	0.604 µM	2.5 µM	0.37	2.13	0.435	5.13	0.575	2.94	0.975	11.6	1.77	6.19
Cc1ccccc1C[P+](c1ccccc1)(c1ccccc1)c1ccccc1	4.23 µM	> 100 µM	4.5	37.1 µM	1.48 µM	> 100 µM	0.433	3.77	1.89	> 100	3.18	> 100	2.13	33.7	0.371	4.65
O=C1c2ccccc2-c2c1c1ccc([N+](=O)[O-])cc1c(=O)n2CCCn1ccnc1	0.218 µM	0.894 µM	0.16	2.43 µM	0.118 µM	4.78 µM	2.18	29.9		15.1	0.0183	0.0637	0.605	10.2	0.379	1.83
COc1ccc(C(=O)c2cc(C)c(OC)c(C)c2)c(OC)c1N(C(=O)CCl)C(=O)CCl	0.0474 µM	15.4 µM			0.062 µM	> 92.4 µM	0.195	30.9	0.548	46	0.0562	4.22	0.0333	> 100	16.8	> 88.4
COc1cc(=O)oc(/C=C/C=C/C=C/C(C)=C\C2(C)OC(C)C(C)(O)C2O)c1C (stereo not given)		> 100 µM				> 100 µM		> 100		> 100		> 100		> 100		> 100
CC1=CC2=C(C#N)C(=O)OC2(C)C(c2ccccc2)C1 (stereo not given)		> 100 µM				> 100 µM		> 100		> 100		> 100		> 100		> 100
O=C(Nc1ccc(N2CCNCC2)cn1)c1[nH]ncc1Nc1ncnc2sccc12	1.62 µM	3.23 µM	3.32	18.8 µM	1.96 µM	4.02 µM	1.76	5.65			2.62	9.05	2.86	14.2	16.4	36.7
